We go through two compounds from patent US7169813B2, “4-oxo-fenretinide, administered alone and in combination with fenretinide, as preventive and therapeutic agent for cancer” (Fondazione IRCCS “Istituto Nazionale Dei Tumori”, priority 2004, dated 2007).

Test [1] deals with T-47D. Description: Growth inhibition (sulforhodamine B assay), single agents and combination. In kind it is cell-based, human. The note with it: for IC50: Homo sapiens, T47D, read-out: 50% Inhibitory Concentrations (IC50) at 72 h; for IC50 / Survival (% control cells): 72 h; for Survival (% control cells): single agent 1 μM. The method, then:
(§1) The following human breast tumor cell lines, obtained from Dr. R. Sutherland (Garvan Institute, Sydney, Australia) were tested: T-47D, BT-20 and MCF-7. The following human neuroblastoma cell lines, purchased from ATCC, were tested: SK-N-BE, SK-N-SH, SK-N-MC, and GI-LI-N. All cell lines were grown in monolayer, in medium containing 10% fetal bovine serum (Invitrogen) in 5% CO2 at 37° C. The medium for A2780, A2780/HPR, IGROV-1, OVCA432, SKOV-3, T-47D, BT-20, MCF-7, GI-LI-N and SK-N-BE cells was RPMI 1640 (Cambrex, Verviers, Belgium) and the medium for OAW42, SK-N-MC and SK-N-SH cells was EMEM (ATCC).
(§2) For the growth inhibition assays, cells were seeded at a density of 3500 cells per well in 96 cluster tissue culture plates, and treated 24 hr after seeding with different concentrations of 4-oxo-4-HPR or 4-HPR. 4-oxo-4-HPR was dissolved in absolute ethanol and 4-HPR (obtained from Dr. J. A. Crowell —NCI Bethesda, Md., USA) was dissolved in Me2SO. […] Control cultures received the same amount of ethanol or Me2SO as the treated cultures. 72 hr after treatment cell number was estimated by using the sulforhodamine B assay according to Monks et al., (J. Natl. Cancer, 1991, 11: 757–766). The survival of treated cells was calculated for the various drug concentrations as percentage of the survival of control cells. The antiproliferative activity of 4-oxo-4-HPR and 4-HPR in each cell line, was tested in three separate experiments and the average values ±SD are reported in FIGS. 2, 3, and 4.
(§3) The antiproliferative effect of the combination of the two drugs, administered at one single dose, was also tested in other ovarian carcinoma cell lines and in breast tumor cell lines. The type of interaction between 4-HPR and 4-oxo-4-HPR was assessed by the method of Drevinko et al., as described in Cancer Biochem. Biophys., 1976, 1:187–195. For this evaluation the drugs were assumed to provide independent effects. The combination index (CI) was calculated as follows: survival fraction (SF) of the combination of 4-HPR+4-oxo-4-HPR divided by (SF 4-HPR×SF 4-oxo-4-HPR). The results for CI are defined as follows: CI=1 indicates an additive effect, CI<1 indicates a supra-additive effect and CI>1 indicates a sub-additive effect.

Test [2] deals with A2780/HPR. The note with it: A2780/HPR clone versus A2780; cited from earlier work.
The test system of test [3] is ovarian tumor cell lines. Description: Growth inhibition, ovarian tumor cell lines (FIG. 2). In kind it is cell-based, human. As to conditions: all tested ovarian tumor cell lines; 72 hr. As to the method:
The following human ovarian carcinoma cell lines were tested: A2780 was obtained from Dr. R. F. Ozols (National Cancer Institute, Bethesda, Md., USA); IGROV-1 was obtained from Dr. J. Benard (Villejuif, France); OVCA432 was obtained from Dr. R. C. Knapp (Boston, Mass., USA); OAW42 and SKOV-3 were purchased from ATCC (Rockville, Md., USA). A2780/HPR, a 4-HPR— resistant ovarian carcinoma cell line, was obtained in our laboratory by continuous exposure of A2780 cells to increasing concentrations of 4-EPR as previously described (Appierto et al., Br. J. Cancer, 2001, 84:1528–1534; Prinetti et al., J. Biol. Chem., 2003, 278:5574–5583). Briefly, cells surviving 60 transplants in 4-HPR —containing medium (3 transplants at 1 μM, 11 transplants at 2 μM, 8 transplants at 3 μM, and 38 transplants at 5 μM) were cloned by limiting dilution. […] Therefore, A2780/HPR cells were continuously maintained in 5 μM 4-HPR and seeded without 4-HPR in all the experiments performed to test their sensitivity to 4-oxo-4-HPR. […]
For the growth inhibition assays, cells were seeded at a density of 3500 cells per well in 96 cluster tissue culture plates, and treated 24 hr after seeding with different concentrations of 4-oxo-4-HPR or 4-HPR. […] The survival of treated cells was calculated for the various drug concentrations as percentage of the survival of control cells. […]

Test [4] concerns A2780. Description: Growth inhibition (sulforhodamine B assay), single agents and combination. In kind it is cell-based, human. The note with it: Homo sapiens, A2780, 72 h, read-out: 50% Inhibitory Concentrations (IC50) at 72 h. The method, then: The following human ovarian carcinoma cell lines were tested: A2780 was obtained from Dr. R. F. Ozols (National Cancer Institute, Bethesda, Md., USA); IGROV-1 was obtained from Dr. J. Benard (Villejuif, France); OVCA432 was obtained from Dr. R. C. Knapp (Boston, Mass., USA); OAW42 and SKOV-3 were purchased from ATCC (Rockville, Md., USA). A2780/HPR, a 4-HPR— resistant ovarian carcinoma cell line, was obtained in our laboratory by continuous exposure of A2780 cells to increasing concentrations of 4-EPR as previously described (Appierto et al., Br. J. Cancer, 2001, 84:1528–1534; Prinetti et al., J. Biol. Chem., 2003, 278:5574–5583). Briefly, cells surviving 60 transplants in 4-HPR —containing medium (3 transplants at 1 μM, 11 transplants at 2 μM, 8 transplants at 3 μM, and 38 transplants at 5 μM) were cloned by limiting dilution. […] Therefore, A2780/HPR cells were continuously maintained in 5 μM 4-HPR and seeded without 4-HPR in all the experiments performed to test their sensitivity to 4-oxo-4-HPR.
as §1, §2, §3
A general note: In SRB staining, fixed cells bind dye roughly in proportion to their protein.

Test [5] concerns A2780. Description: Apoptosis induction (Cell Death Detection ELISA, DNA fragmentation). In kind it is cell-based, human. As to conditions: 5 μM, 24 hr. The method, then:
Although the mechanism of action of 4-HPR is not well understood, its tumor growth inhibitory effects have been attributed to apoptosis induction (Supino et al., Int. J. Cancer, 1996, 65:491–497). The apoptosis inducing effects of 4-oxo-4-HPR were compared with those of 4-HPR in the human ovarian carcinoma cell line A2780 and in its counterpart A2780/HPR, with induced resistance to 4-HPR. Apoptosis was evaluated by a Cell Death Detection ELISA Plus Assay Kit (Roche Diagnostic GmbH, Germany) according to the manufacturer's instructions. This assay quantitates the amount of cytoplasmic histone-associated DNA fragments which increases during apoptosis. Cells were seeded in 96-well cell culture plates and treated the day after with 5 μM 4-oxo-4-HPR or 4-HPR for 24 hr.
Background: An ELISA detects its analyte on a solid surface through an enzyme-linked reagent.

Where two headings read alike, the source gives them in different places.

For the compound `CC1=C(/C=C/C(C)=C/C=C/C(C)=C/C(=O)Nc2ccc(O)cc2)C(C)(C)CCC1` [4-HPR, N-(4-hydroxyphenyl)retinamide, reference compound], in test [1] (T-47D), the IC50 turned out to be 4 µM and the “Survival (% control cells)” value worked out at 90 % control cells. The “resistance of A2780/HPR to 4-HPR” value in test [2] is listed as 10 fold.
In the case of `CC1=C(/C=C/C(C)=C/C=C/C(C)=C/C(=O)Nc2ccc(O)cc2)C(C)(C)CCC1=O` [4-oxo-4-HPR, 4-oxo-N-(4-hydroxyphenyl)retinamide], the IC50 is 2.5 µM in test [1] and 0.5 µM in test [4]. For the same compound, the “tumor cell survival (FIG. 3), compared with 4-HPR, in words” value in test [1] (T-47D, 72 hr) is reported as “similarly effective”. For the same compound, the “Survival (% control cells)” value in test [1] (T-47D) turned out to be 94 % control cells. Moreover, in test [3], the “reducing tumor cell survival (FIG. 2), compared with 4-HPR, in words” value is “more effective than 4-HPR”. Also, the “induction of apoptosis (DNA fragmentation, fold versus control cells)” value in test [5] was “higher than that of 4-HPR”.
